The term IC50 denotes the concentration needed to halve the response being measured.

For test [1], the system named is Human colorectal cancer cell line HCT116. Description: Test 1 of anti-proliferative activity against tumor cells (Cell-Titer Glo). Format: cell-based. Conditions: Homo sapiens, HCT-116, 72 h, read-out: HCT116 Anti-proliferative activity IC50 (nM), HCT116 cells, cultured 3 days with compound, Cell-Titer Glo. The method, then:
(§1) Cell culture: HCT116 cells and SKBR3 cells were cultured in McCoy's 5a medium containing 10% fetal bovine serum+1% penicillin-streptomycin at 37° C. and 5% CO2, and OVCAR3 cells were cultured in 1640 medium containing 20% fetal bovine serum+2 μg/mL bovine insulin+1% penicillin-streptomycin at 37° C. and 5% CO2. Cells in logarithmic growth phase were suitable for the experiment.
(§2) Detection of cell proliferation activity: The inhibitory activity of the compounds on the proliferation of the three cell lines HCT116, SKBR3 and OVCAR3 was detected using Cell-Titer Glo reagent. HCT116 cells (1500 cells per well), SKBR3 cells (3000 cells per well) and OVCAR3 cells (5000 cells per well) were seeded in 96-well plates and cultured at 37° C. and 5% CO2 for 24 h. The solution of the compound to be tested (the compound was dissolved in DMSO with the concentration of the compound being 1 mM, then the compound was diluted to 3 μM with DMSO, with 3-fold dilution and a total of 9 concentrations, and 10 μL of the prepared compound solution was transferred to a 96-well plate with the final concentration of 0-300 nM) was added. The cells were placed at 37° C. and 5% CO2 for further culture. HCT116 cells were cultured for 3 days, and SKBR3 cells and OVCAR3 cells were cultured for 5 days. The cell viability was detected by adding Cell-Titer Glo reagent.
(§3) Additionally, a negative control group and a positive control group were provided as Bottom and Top, respectively. In the negative control group, the cells were not added, only the same volume of medium was added, and other operations were consistent with those in the experimental group; in the positive control group, the test compound was not added, only the same volume of DMSO was added, and other operations were consistent with those in the experimental group.
(§4) Data analysis: The % compound inhibition was calculated, and fitting was performed to obtain IC50 of the compound.
(§5) % Compound inhibition=1−100%*(Signal−Bottom)/(Top−Bottom).
(§6) Signal represents the signal value of the experimental group, Bottom represents the average signal value of the negative control group, and Top represents the average signal value of the positive control group.

In test [2] the test system is human breast cancer cell line SKBR3. The description is as above. Format: cell-based. The following applies: Homo sapiens, SK-BR-3, 120 h, read-out: SKBR3 Anti-proliferative activity IC50 (nM), SKBR3 cells, cultured 5 days with compound, Cell-Titer Glo. The method, then:
as §1, §2, §3, §4, §5, §6

As for `CC[C@@]1(O)C(=O)OCc2c1cc1n(c2=O)Cc2c-1nc1cc3c(cc1c2CNC(=O)CO)OCCO3` [Compound 1, (S)-N-((8-ethyl-8-hydroxy-9,12-dioxo-2,3,8,9,12,14-hexahydro-11H-[1,4]dioxino[2,3-g]pyrano[3′,4′:6,7]indolizino[1,2-b]quinolin-15-yl)methyl)-2-hydroxyacetamide], the IC50 in test [1] was determined as 36.8 nM; in test [2] it was 8.5 nM.
For the compound `CC[C@@]1(O)C(=O)OCc2c1cc1n(c2=O)Cc2c-1nc1cc(F)c(Cl)cc1c2CN` [Compound 2, (S)-11-(aminomethyl)-9-chloro-4-ethyl-8-fluoro-4-hydroxy-1,12-dihydro-14H-pyrano[3′,4′:6,7]indolizino[1,2-b]quinoline-3,14(4H)-dione], the results for the half-maximal inhibitory concentration (IC50) in test [1] and in test [2] were 3.6 nM and 2.5 nM, respectively.
With `CC[C@@]1(O)C(=O)OCc2c1cc1n(c2=O)Cc2c-1nc1cc(F)c(Cl)cc1c2CNC(=O)CO` [Compound 3, (S)-N-((9-chloro-4-ethyl-8-fluoro-4-hydroxy-3,14-dioxo-3,4,12, 14-tetrahydro-1H-pyrano[3′,4′:6,7]indolizino[1,2-b]quinolin-11-yl)methyl)-2-hydroxyacetamid], the concentration for half-maximal inhibition (IC50) in test [1] came out at 18.2 nM; in test [2], 3.6 nM.
On to `CC[C@@]1(O)C(=O)OCc2c1cc1n(c2=O)Cc2c-1nc1cc(F)c(Br)cc1c2CN` [Compound 4, (S)-11-(aminomethyl)-9-bromo-4-ethyl-8-fluoro-4-hydroxy-1,12-dihydro-14H-pyrano[3′,4′:6,7]indolizino[1,2-b]quinoline-3,14(4H)-dione], for which the values for the IC50 in test [1] and in test [2] were 3.6 nM and 2.7 nM, respectively.
Regarding `CC[C@@]1(O)C(=O)OCc2c1cc1n(c2=O)Cc2c-1nc1cc(F)c(Br)cc1c2CNC(=O)CO` [Compound 5, (S)-N-((9-bromo-4-ethyl-8-fluoro-4-hydroxy-3,14-dioxo-3,4, 12,14-tetrahydro-1H-pyrano[3′,4′:6,7]indolizino[1,2-b]quinolin-11-yl)methyl)-2-hydroxyacetamide], the 50% inhibitory concentration (IC50) in test [1] was found to be 16.9 nM; in test [2] it was 3.3 nM.
`CC[C@@]1(O)C(=O)OCc2c1cc1n(c2=O)Cc2c-1nc1ccc3c(c1c2CNC(=O)CO)CCC3` [Compound 7, (S)-N-((8-ethyl-8-hydroxy-9,12-dioxo-2,3,8,9,12,14-hexahydro-1H,11H-cyclopentadieno[f]pyrano[3′,4′:6,7]indolizino[1,2-b]quinolin-15-yl)methyl)-2-hydroxyacetamide]: in test [1], the IC50 is 22.8 nM.
On to `CC[C@@]1(O)C(=O)OCc2c1cc1n(c2=O)Cc2cc3c(CNC(=O)CO)c(O)ccc3nc2-1` [Compound 8, (S)-N-((4-ethyl-4,9-dihydroxy-3,14-dioxo-3,4,12,14-tetrahydro-1H-pyrano[3′,4′:6,7]indolizino[1,2-b]quinolin-10-yl)methyl)-2-hydroxyacetamide], for which the figures for the IC50 in test [1] and in test [2] were 289 nM and 55.1 nM, respectively.
On to `CC[C@@]1(O)C(=O)OCc2c1cc1n(c2=O)Cc2c-1nc1cc(F)c(C)cc1c2CNC(=O)C1(O)CC1` [Compound 9, (S)-N-((4-ethyl-8-fluoro-4-hydroxy-9-methyl-3,14-dioxo-3,4,12, 14-tetrahydro-1H-pyrano[3′,4′:6,7]indolizino[1,2-b]quinolin-11-yl)methyl)-1-hydroxycyclopropane-1-carboxamide], for which the IC50 came out at 4.6 nM in test [1] and 2.1 nM in test [2].
For `CC[C@@]1(O)C(=O)OCc2c1cc1n(c2=O)Cc2c-1nc1cc(Cl)c(C)cc1c2CNC(=O)C1(O)CC1` [Compound 10, (S)-N-((8-chloro-4-ethyl-4-hydroxy-9-methyl-3,14-dioxo-3,4, 12,14-tetrahydro-1H-pyrano[3′,4′:6,7]indolizino[1,2-b]quinolin-11-yl)methyl)-1-hydroxycyclopropan-1-carboxamide], in that order: 5.6 nM and 2.3 nM.
Regarding `CC[C@@]1(O)C(=O)OCc2c1cc1n(c2=O)Cc2c-1nc1cc(Cl)c(C)cc1c2CNC(=O)C(O)C1CC1` (stereo partly drawn) [Compound 11, N-(((S)-8-chloro-4-ethyl-4-hydroxy-9-methyl-3,14-dioxo-3,4, 12,14-tetrahydro-1H-pyrano[3′,4′:6,7]indolizino[1,2-b]quinolin-11-yl)methyl)-2-cyclopropyl-2-hydroxyacetamide], the IC50 was 10.4 nM in test [1] and 3.2 nM in test [2].
For `CC[C@@]1(O)C(=O)OCc2c1cc1n(c2=O)Cc2c-1nc1cc(F)c(Cl)c(F)c1c2CN` [Compound 12, (S)-11-(aminomethyl)-9-chloro-4-ethyl-8,10-difluoro-4-hydroxy-1,12-dihydro-14H-pyrano[3′,4′:6,7]indolizino[1,2-b]quinoline-3,14(4H)-dione], in that order: 13.7 nM and 4.8 nM.
For the compound `CC[C@@]1(O)C(=O)OCc2c1cc1n(c2=O)Cc2c-1nc1cnc(Br)cc1c2CNC(=O)CO` [Compound 15, (S)-N-((9-bromo-4-ethyl-4-hydroxy-3,14-dioxo-3,4,12,14-tetrahydro-1H-pyrano[3′,4′:6,7]indolizino[1,2-b][1,7]naphthyridin-11-yl)methyl)-2-hydroxyacetamide], the IC50 in test [1] is 81.3 nM.
On to `CC[C@@]1(O)C(=O)OCc2c1cc1n(c2=O)Cc2c-1nc1cc(F)c(Cl)c(F)c1c2CNC(=O)C1(O)CC1` [Compound 16, (S)-N-((9-chloro-4-ethyl-8,10-difluoro-4-hydroxy-3,14-dioxo-3,4,12,14-tetrahydro-1H-pyrano[3′,4′:6,7]indolizino[1,2-b]quinolin-11-yl)methyl)-1-hydroxycyclopropane-1-carboxamide], for which the IC50 in test [1] was 3 nM; in test [2], 2.3 nM.
For `CC[C@@]1(O)C(=O)OCc2c1cc1n(c2=O)Cc2c-1nc1cc(Cl)c(C)cc1c2CNC(=O)C(C)(C)O` [Compound 17, (S)-N-((8-chloro-4-ethyl-4-hydroxy-9-methyl-3,14-dioxo-3,4, 12,14-tetrahydro-1H-pyrano[3′,4′:6,7]indolizino[1,2-b]quinolin-11-yl)methyl)-2-hydroxy-2-methylpropanamide], the half-maximal inhibitory concentration (IC50) turned out to be 6 nM in test [1] and 2.7 nM in test [2].
The corresponding values for `CC[C@@]1(O)C(=O)OCc2c1cc1n(c2=O)Cc2c-1nc1cc(Cl)c(C)cc1c2CNC(=O)C(O)C(C)C` (stereo partly drawn) [Compound 18, N-(((S)-8-chloro-4-ethyl-4-hydroxy-9-methyl-3,14-dioxo-3,4, 12,14-tetrahydro-1H-pyrano[3′,4′:6,7]indolizino[1,2-b]quinolin-11-yl)methyl)-2-hydroxy-3-methylbutanamide] are 10.5 nM and 5.1 nM.
Take `CC[C@@]1(O)C(=O)OCc2c1cc1n(c2=O)Cc2c-1nc1cc(F)c(C)cc1c2CNC1(CO)CC1` [Compound 19, (S)-4-ethyl-8-fluoro-4-hydroxy-11-(((1-(hydroxymethyl)cyclopropyl)amino)methyl)-9-methyl-1,12-dihydro-14H-pyrano[3′,4′:6,7]indolizino[1,2-b]quinoline-3,14(4H)-dione]: the IC50 in test [1] is 5 nM; in test [2] it was 4 nM.
On to `CC[C@@]1(O)C(=O)OCc2c1cc1n(c2=O)Cc2c-1nc1ccc3occc3c1c2CNC(=O)CO` [Compound 20, (S)-N-((8-ethyl-8-hydroxy-9,12-dioxo-8,9,12,14-tetrahydro-11H-furo[3,2-f]pyrano[3′,4′:6,7]indolizino[1,2-b]quinolin-15-yl)methyl)-2-hydroxyacetamide], for which the IC50 in test [1] worked out at 20.7 nM; in test [2] it was 10.5 nM.
Consider `CC[C@@]1(O)C(=O)OCc2c1cc1n(c2=O)Cc2c-1nc1cc(Cl)c3occc3c1c2CNC(=O)CO` [Compound 27, (S)-N-((4-chloro-8-ethyl-8-hydroxy-9,12-dioxo-8,9,12,14-tetrahydro-11H-furo[3,2-f]pyrano[3′,4′:6,7]indolizino[1,2-b]quinolin-15-yl)methyl)-2-hydroxyacetamide], for which the IC50 in test [1] is 24.3 nM.
In the case of `CC[C@@]1(O)C(=O)OCc2c1cc1n(c2=O)Cc2c-1nc1cc(Cl)c3occc3c1c2CNC(=O)C(O)C1CC1` (stereo partly drawn) [Compound 28, N-(((S)-4-chloro-8-ethyl-8-hydroxy-9,12-dioxo-8,9,12,14-tetrahydro-11H-furo[3,2-f]pyrano[3′,4′:6,7]indolizino[1,2-b]quinolin-15-yl)methyl)-2-cyclopropyl-2-hydroxyacetamide], the IC50 in test [1] stood at 8.8 nM.
For `CC[C@@]1(O)C(=O)OCc2c1cc1n(c2=O)Cc2c-1nc1cc3c(c([N+](=O)[O-])c1c2CNC(=O)C(O)C1CC1)OCO3` (stereo partly drawn) [Compound 29, 2-cyclopropyl-N-(((S)-7-ethyl-7-hydroxy-15-nitro-8,11-dioxo-7,8,11,13-tetrahydro-10H-[1,3]dioxolo[4,5-g]pyrano[3′,4′:6,7]indolizino[1,2-b]quinolin-14-yl)methyl)-2-hydroxyacetamide], the IC50 in test [1] amounted to 55.1 nM.

The values are drawn from patent publication US20250270227A1, “CAMPTOTHECIN DERIVATIVE, AND PHARMACEUTICAL COMPOSITION AND USE THEREOF” (SIMCERE ZAIMING PHARMACEUTICAL CO., LTD., priority 2021, published 2025).
